Laboratory results published in patent US12533338B2, “Enhanced gene delivery to natural killer cells, hematopoietic stem cells and macrophages” (priority 2015, dated 2026).
“Also recorded” adds a separate entry of the source. Where two headings read alike, the source gives them in different places.

Assays:
[1] = test system: NK cells; test: Dose dependence of lentiviral transduction with LeGO-G2 virus, GFP+ cells by flow cytometry; format: cell-based, human
Procedure: Primary human NK cells and NK-92 cells are transduced with LeGO-G2 virus in the presence of varying doses of BX795 or iX for 6 hours. GFP expression is analyzed by flow cytometry 72 hours after transduction. GFP+ cell percentages are shown on graph. Data from three independent experiments, each run in triplicates.
For each lentiviral transduction, 0.25×10^6 NK cells per well were seeded in a 24-well plate (BD Biosciences) and mixed with an appropriate amount of virus supernatant in the presence of 8 μg/ml of protamine sulfate (Sigma-Aldrich) or polybrene (Sigma-Aldrich) in a final volume of no more than 1 ml. The cytokines were replenished and plates were centrifuged at 1000×g for 1 hour at room temperature. After centrifugation, without removing viral supernatants, the plates were incubated at 37° C., 5% CO2 for 4-6 hours. At the end of the incubation, a second centrifugation at 1000×g for 1 hour at room temperature was carried out, after which the supernatants were removed from the wells and 1 ml of fresh NK cell growth medium (CellGro SCGM supplemented with 10% Human AB Serum) per well was added. The cells were maintained in this medium with daily addition cytokines (IL-2: 1000 U/ml, and IL-21: 20 ng/ml. Combinations of cytokines were used as indicated in FIG. 1. Only IL-2 and IL-21 were used in the rest of the experiments) for at least 3 days before acquisition of eGFP expression was carried out. In indicated experiments, the following inhibitors were present during the transduction: BX795 (Invivogen) and (5Z)-7-Oxozeaenol (iX) (Tocris).
For the transduction of cell lines, 2×10^5 cells per well were seeded into 24-well plates. Treatment with 6 μM BX795 and (5Z)-7-Oxozeaenol (iX) was initiated simultaneously with the transduction process. Appropriate amount of viral supernatants were added into the wells along with protamine sulfate (NK92, cells) and the total volume was adjusted to 500 μl. The plates were centrifuged at 1000×g for 1 hour followed by incubation at 37° C., 5% CO2 for 4-6 hours, after which the virus containing supernatant was removed and fresh growth media was added. The cells were grown for at least 3 days before acquisition of eGFP expression was carried out.
All antibody stainings for flow cytometry were done according to the following protocol: For surface stainings, the cells were washed once with PBS and incubated with appropriate amounts of antibody at 4° C. for 30 min. The labeled cells were then washed with PBS and fixed in 1% PFA prior to data acquisition. Data acquisition was done on a FACSCalibur (BD Biosciences), CyFlow ML (Partec GmbH, Munster, Germany) and LSRII-Fortessa (BD Biosciences) with standard filters. Data were analysed with the FlowJo software (TreeStar Inc.). […]

[2] = test system: NK cells; test: Annexin-V/PI staining for toxicity; format: cell-based; details: for toxicity on NK cells (apoptotic and dead cells) compared to DMSO controls: 1.5 μM; for toxicity on NK cells (apoptotic and dead cells): 6 μM
Excerpt: FIG. 2B contains two bar graphs comparing apoptotic to dead Annexin −V^+/PI^−cells.
Remarkably, the use of iX at the optimum concentration presents no immediate toxic effects on NK cells as determined by Annexin-V/PI staining after […] treatment (FIG. 2b).

[3] = test system: RIG-I; test: RIG-I expression at protein level during lentiviral transduction; format: cell-based; details: for change in RIG-I expression at the protein level: after the 6 hour transduction period; for change in RIG-I expression: at 24 hours, FIG. 3
Excerpt: (§1) FIG. 3 contains photos of a gel showing iX treatment during lentiviral transduction decreases RIG-I and IRF-3.

[4] = test system: IRF3; test: IRF3 expression at protein level during lentiviral transduction; format: cell-based; details: for change in IRF3 expression at the protein level: after the 6 hour transduction period; for change in IRF3 expression: at 24 hours, FIG. 3
Excerpt: as §1

[5] = test system: NK92 cells; test: IFNγ secretion upon exposure to lentiviral particles; format: cell-based, human; details: FIG. 4
Excerpt: FIG. 4 contains two bar graphs showing that iX treatment interferes with anti-viral cytokines IFNγ and TNF secretion.
(FIG. 4). […] (FIG. 4). […] (FIG. 4).

[6] = test system: NK-92 cells; test: Gene expression profiling by RNAseq during lentiviral transduction; format: cell-based, human; details: end of 6 hour transduction, FIGS. 6A-H
Procedure: Gene expression profiling by RNAseq for identification of pathways triggered by lentivirus entry in the absence and presence of small molecule inhibitors are assessed. NK-92 cells are transduced as previously described. At the end of the 6 hour transduction protocol, RNA from the cells is extracted and sequenced on a HiSeq 2500 instrument. After quality control, the reads are mapped to the human genome using the STAR aligner and gene abundance is estimated with HT-Seq. Differential expression is analyzed using DeSeq software. […] (FIG. 5).

[7] = test system: NK cells; details: cited from earlier work
[8] = test system: primary human NK cells; test: Lentiviral transduction (LeGO-G2, GFP expression) of primary NK cells; format: cell-based; details: 6 μM during lentiviral transduction, FIG. 1
Procedure: (§2) FIG. 1 contains two bar graphs showing the inhibition of innate immune signaling with iX enhances lentiviral transduction efficiency in NK cells. NK-92 cells and primary human NK cells isolated from healthy donor PBMCs were subjected to lentiviral transduction in the presence of 6 μM BX795 or iX for 6 hours. GFP expression is acquired 72 hours later. +cell percentages are shown on graph.
[…]. Next day cells were transfected with 30 μg of LeGO-G2 plasmid (courtesy of Prof. Boris Fehse, University Medical Center Hamburg-Eppendorf, Hamburg, Germany), 15 μg of pMDLg/pRRE (Addgene, Cambridge, Mass., USA), 10 μg of pRSV-REV (Addgene) and 5 μg of phCMV-VSV-G (Addgene) using calcium phosphate transfection kit (Sigma-Aldrich) in the presence of 25 μM Chloroquine (Sigma-Aldrich). […]
The peripheral blood mononuclear cells (PBMCs) were isolated by gradient centrifugation, using Lymphoprep (Nyegaard, Oslo, Norway) and washed twice with phosphate-buffered saline (PBS) (GIBCO, Grand Island, N.Y., USA). Cell count and viability were assessed by Turk and Trypan Blue dye exclusion. […]
(§3) All antibody stainings for flow cytometry were done according to the following protocol: For surface stainings, the cells were washed once with PBS and incubated with appropriate amounts of antibody at 4° C. for 30 min. […] Data were analysed with the FlowJo software (TreeStar Inc.). […]

[9] = test system: NK-92 cells; test: Lentiviral transduction (GFP expression) of NK-92 cell line; format: cell-based, human; details: 6 μM during lentiviral transduction, NK-92, FIG. 1
Procedure: as §2
[…]. Next day cells were transfected with 30 μg of LeGO-G2 plasmid (courtesy of Prof. Boris Fehse, University Medical Center Hamburg-Eppendorf, Hamburg, Germany), 15 μg of pMDLg/pRRE (Addgene, Cambridge, Mass., USA), 10 μg of pRSV-REV (Addgene) and 5 μg of phCMV-VSV-G (Addgene) using calcium phosphate transfection kit (Sigma-Aldrich) in the presence of 25 μM Chloroquine (Sigma-Aldrich). 10 hours after transfection, the medium was changed and thereafter virus containing supernatant was collected every 24 hours for 2-3 days and stored in −80° C. until further use. A small aliquot from each production was used to determine viral titers by transduction of 293FT cells with serially diluted amounts of virus supernatant. […]
as §3

[10] = test system: CD34+ HSCs; test: CRISPR/Cas9 gene editing of Beta 2 Microglobulin, loss of B2M expression by flow cytometry; format: cell-based, human; details: 1 μM iX, hematopoietic stem cells, FIG. 7, n=4
Excerpt: (§4) The recent emergence of the clustered, regularly interspaced, palindromic repeats (CRISPR) system for gene editing has the potential to overcome these limitations. The CRISPR technology utilizes a fixed nuclease, often the CRISPR-associated protein 9 (Cas9) from Streptococcus pyogenes, in combination with a short guide RNA (gRNA) to target the nuclease to a specific DNA sequence. We confirmed that gRNA recognition and thus editing efficacy could be increased with introduction of iX inhibitor. […]
(§5) The following commercially available guide RNAs from Origene Technologies were tested against Beta 2 Microglobulin: […] […] 48 hours post-transfection, cells were stained with anti-B2M antibody (clone:2M2, Biolegend) to compare loss of (32 m expression. Cells were then analysed using flowcytometry as described below.
as §3

[11] = test system: NK92 cell line; test: as above; format: cell-based, human; details: 1 μM iX, NK cells (NK92), FIG. 7, n=4
Excerpt: as §4, §5, §3

[12] = test system: Human primary macrophages; test: as above; format: cell-based; details: 1 μM iX, FIG. 7, n=4
Excerpt: as §4, §5, §3

| SMILES | optimum dose for lentiviral gene delivery ([1]; NK cells) [µM] | toxicity on NK cells (apoptotic and dead cells) compared to DMSO controls [2] | toxicity on NK cells (apoptotic and dead cells) [2] | change in RIG-I expression at the protein level [3] | change in RIG-I expression [3] | change in IRF3 expression at the protein level [4] | change in IRF3 expression [4] | effect on anti-viral response pathways at mRNA level [6] | other results |
| --- | --- | --- | --- | --- | --- | --- | --- | --- | --- |
| O=C(NCCCNc1nc(Nc2cccc(NC(=O)N3CCCC3)c2)ncc1I)c1cccs1 [BX795] | 6 | no toxicity | quite small but statistically significant increase | not detectable | significant decrease | not detectable | significant decrease | failed to fully suppress similar anti-viral responses | secretion of IFNγ ([5]; 24 hours after exposure to lentiviral particles): significantly trigger similar effect; transduction efficiency in NK cells ([7]; previously reported (Sutlu et al., 2012)): dramatically increases; effect of concentration on genetic modification efficiency ([7]; shown previously): dose-dependent effect |
| COc1cc(O)c2c(c1)/C=C/C[C@H](O)[C@H](O)C(=O)/C=C\C[C@H](C)OC2=O [iX, (5Z)-7-Oxozeaenol] | 1.5 | no significant toxicity | no signs of immediate toxicity | not detectable | significant decrease | not detectable | significant decrease | affected pathways associated with anti-viral responses | improvement in lentiviral gene delivery [8]: statistically significant improvement; improvement in lentiviral gene delivery [9]: statistically significant improvement; enhancement of lentiviral gene delivery compared to BX795 ([1]; NK cells): to a further extent; also recorded: significantly higher extent; effect of concentration on genetic modification efficiency ([1]; varying doses, FIG. 2A): dose-dependent effect; β2M gene editing efficacy [10]: increased (32M editing significantly; β2M gene editing efficacy [11]: increased (32M editing significantly; β2M gene editing efficacy [12]: increased (32M editing significantly; extent of downregulation in RIG-I compared to BX795 [3]: significantly more; extent of downregulation in IRF3 compared to BX795 [4]: significantly more; secretion of IFNγ ([5]; six hours, during lentiviral gene delivery): significantly decreased |
